pIC50: −log10 of the molar value. Counter-ions that a name gives are not always drawn. Like-named read-outs stand apart in the source and are kept apart here.

Experiment [1] has as its target ALPK1 (Homo sapiens (Human), UniProt Q96QP1). The experiment in a line: ALPK1 in vitro kinase assay (HTRF of TIFA phosphorylation). In kind it is biochemical. (In general: In TR-FRET formats the signal depends on donor and acceptor labels being close together.)
In experiment [2] the test system is ALPK1-dependent NFκB reporter gene activation in HEK293 cells stably expressing an NF-kB reporter (G9 cells). The experiment in a line: NFκB gene reporter alkaline phosphatase assay. The experiment is classed as cell-based. As to conditions: read-out: NFkB assay IC50. The source says: In embodiments, a compound of Formula I, or a subembodiment described herein, is an inhibitor of ALPK1 as measured, for example, in an in vitro kinase assay, or an assay designed to measure the activation of downstream targets of ALPK1 pathway activation, for example NFkB transcriptional activation and the secretion of proinflammatory cytokines and chemokines, such as IL-8, which is also referred to as CXCL-8. In general, the computer program XL fit was used for data analysis, including non-linear regression analysis. The half maximal inhibitory concentration (IC50) was used as the measure of a compound's effectiveness in the assays. IC50 values were determined using the following logistic equation Y=min+(max−min)/(1+(X/IC50^−hillslpoe), where Y is the value at the compound concentration, X. The concentration response curve fitting was conducted using GraphPad Prism version 6.00 software.
An alkaline phosphatase reporter assay system was used to measure inhibition of ALPK1-dependent NFκB reporter gene activation. Briefly, HEK293 cells stably expressing an NF-kB reporter (referred to herein as “G9 cells”) were maintained in DMEM as described above. For the assay, cells were seeded into 96-well plates at a density of 10,000 cells/well in Freestyle™ 293 Expression Medium (ThermoFisher), and allowed to attach overnight. Cells were pretreated with serially diluted compounds for 30 min and then stimulated with D-glycero-D-manno-6-fluoro-heptose-1β-S-ADP. […] NFkB gene activation was detected using the chromogenic substrate, para-nitrophenyl phosphate (pNPP) according to the manufacturer's protocols (pNPP Phosphatase Assay, Beyotime Biotechnology).

Chain of ALPK1 (Q96QP1 whole entry): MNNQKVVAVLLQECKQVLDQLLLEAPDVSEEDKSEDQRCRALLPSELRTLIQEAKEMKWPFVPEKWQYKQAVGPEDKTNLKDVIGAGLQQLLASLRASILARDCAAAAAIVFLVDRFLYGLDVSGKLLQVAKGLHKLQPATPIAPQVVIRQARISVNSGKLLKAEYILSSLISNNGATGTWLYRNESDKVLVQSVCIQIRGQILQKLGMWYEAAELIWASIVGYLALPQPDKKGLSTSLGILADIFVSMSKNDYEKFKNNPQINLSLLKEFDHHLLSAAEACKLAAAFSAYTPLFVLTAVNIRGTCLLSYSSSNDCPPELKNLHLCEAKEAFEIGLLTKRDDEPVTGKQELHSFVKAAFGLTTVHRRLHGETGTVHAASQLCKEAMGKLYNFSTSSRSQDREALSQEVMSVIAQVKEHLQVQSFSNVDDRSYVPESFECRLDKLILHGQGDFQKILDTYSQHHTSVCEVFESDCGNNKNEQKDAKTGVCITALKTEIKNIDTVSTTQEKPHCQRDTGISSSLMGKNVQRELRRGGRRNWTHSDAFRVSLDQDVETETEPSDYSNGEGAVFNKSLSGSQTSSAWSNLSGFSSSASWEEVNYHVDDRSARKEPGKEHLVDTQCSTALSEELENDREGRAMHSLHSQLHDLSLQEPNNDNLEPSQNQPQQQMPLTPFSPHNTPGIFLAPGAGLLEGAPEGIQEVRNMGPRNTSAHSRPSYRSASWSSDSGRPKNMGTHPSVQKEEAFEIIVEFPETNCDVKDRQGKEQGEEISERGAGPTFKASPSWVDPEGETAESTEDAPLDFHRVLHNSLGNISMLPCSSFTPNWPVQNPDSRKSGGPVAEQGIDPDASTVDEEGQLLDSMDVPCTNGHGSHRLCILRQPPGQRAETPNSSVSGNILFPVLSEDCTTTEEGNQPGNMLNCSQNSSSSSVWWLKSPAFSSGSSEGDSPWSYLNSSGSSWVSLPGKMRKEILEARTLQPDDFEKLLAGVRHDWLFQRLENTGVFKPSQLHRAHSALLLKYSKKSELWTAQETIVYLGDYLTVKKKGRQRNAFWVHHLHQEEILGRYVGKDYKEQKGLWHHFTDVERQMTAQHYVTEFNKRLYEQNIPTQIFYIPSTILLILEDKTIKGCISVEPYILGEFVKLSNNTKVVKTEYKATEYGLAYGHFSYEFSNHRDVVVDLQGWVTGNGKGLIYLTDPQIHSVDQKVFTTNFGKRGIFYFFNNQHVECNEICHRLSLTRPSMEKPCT

Turning to `CC(C)(c1ccc(Br)cc1)c1csc(NC(=O)NCCN2CCNCC2)n1` [Example A177, 1-(4-(2-(4-bromophenyl)propan-2-yl)thiazol-2-yl)-3-(2-(piperazin-1-yl)ethyl)urea], the pIC50 in experiment [1] was 6.60; in experiment [2] (Homo sapiens, HEK293) it was 5.78.

In the case of `CNC(=O)c1cc(CNC(=O)Nc2nc(C(C)(C)c3ccc(OC)cc3)cs2)ccc1N1CCNCC1` [Example A065, 5-((3-(4-(2-(4-methoxyphenyl)propan-2-yl)thiazol-2-yl)ureido)methyl)-N-methyl-2-(piperazin-1-yl)benzamide], the negative logarithm of the IC50 (pIC50) in experiment [1] is 7.52; in experiment [2] (Homo sapiens, HEK293), 5.35.

Consider `C#C[C@](C)(c1ccc(Cl)cc1)c1nc(NC(=O)NCCO)sc1Cl` [Example A248, (R)-1-(5-chloro-4-(2-(4-chlorophenyl)but-3-yn-2-yl)thiazol-2-yl)-3-(2-hydroxyethyl)urea], for which the pIC50 in experiment [2] (Homo sapiens, HEK293) was 5.56. As for `COc1ccc(C(C)(C)c2csc(NC(=O)NCCN3CCC(N)C3)n2)cc1` (stereo not shown) [Example A227, 1-(2-(3-aminopyrrolidin-1-yl)ethyl)-3-(4-(2-(4-methoxyphenyl)propan-2-yl)thiazol-2-yl)urea], the pIC50 in experiment [1] was 6.86; in experiment [2] (Homo sapiens, HEK293), 5.51. As to `C#CC(C)(c1ccc(Cl)cc1)c1csc(NC(=O)N2CCC(CO)C2)n1` (stereo not shown) [Example A270, N-(4-(2-(4-chlorophenyl)but-3-yn-2-yl)thiazol-2-yl)-3-(hydroxymethyl)pyrroli-dine-1-carboxamide], the pIC50 in experiment [1] is 6.04; in experiment [2] (Homo sapiens, HEK293), 5.71. For `COc1ccc(C(C)(C)c2csc(NC(=O)NCCS(C)(=O)=O)n2)cc1` [Example A013, 1-(4-(2-(4-methoxyphenyl)propan-2-yl)thiazol-2-yl)-3-(2-(methylsulfonyl)ethyl)urea], in that order: 6.50 and 5.53.

For the compound `C#C[C@](C)(c1ccc(Cl)cc1)c1csc(NC(=O)N2CC(CN3CCNCC3)C2)n1` (stereo in doubt) [Example A291, N-(4-(2-(4-chlorophenyl)but-3-yn-2-yl)thiazol-2-yl)-3-(piperazin-1-ylmethyl)azetidine-1-carboxamide], the negative-log IC50 (pIC50) is 6.96 in experiment [1] and 5.78 in experiment [2] (Homo sapiens, HEK293).

`COc1ccc(C(C)(C)c2csc(NC(=O)NCc3ccc(N4CCNC(C)C4)c(C(N)=O)c3)n2)cc1` (stereo not shown) [Example A063, 5-((3-(4-(2-(4-methoxyphenyl)propan-2-yl)thiazol-2-yl)ureido)methyl)-2-(3-methylpiperazin-1-yl)benzamide]: the pIC50 is 7.54 in experiment [1] and 5.54 in experiment [2] (Homo sapiens, HEK293).

In the case of `COc1ccc(C(C)(C)c2csc(NC(=O)NCc3ccc(CO)cc3)n2)cc1` [Example A140, 1-(4-(hydroxymethyl)benzyl)-3-(4-(2-(4-methoxyphenyl)propan-2-yl)thiazol-2-yl)urea], the pIC50 is 6.88 in experiment [1] and 5.26 in experiment [2] (Homo sapiens, HEK293). For `CC(C)(c1ccc(Br)cc1)c1csc(NC(=O)NCCCS(C)(=O)=O)n1` [Example A130, 1-(4-(2-(4-bromophenyl)propan-2-yl)thiazol-2-yl)-3-(3-(methylsulfonyl)propyl) urea], in that order: 6.53 and 5.96. For `COc1ccc(C(C)(C)c2csc(NC(=O)NCCCS(C)(=O)=O)n2)cc1` [Example A136, 1-(4-(2-(4-methoxyphenyl)propan-2-yl)thiazol-2-yl)-3-(3-(methylsulfonyl)propyl) urea], in that order: 6.68 and 6.19. For `COc1ccc(C(C)(C)c2csc(NC(=O)NCCCCNc3ccccc3)n2)cc1` [Example A147, 1-(4-(2-(4-methoxyphenyl)propan-2-yl)thiazol-2-yl)-3-(4-(phenylamino)butyl)urea], in experiment [2] (Homo sapiens, HEK293), the pIC50 was 5.72.

Regarding `COc1ccc(C(C)(C)c2csc(NC(=O)NCc3cnc(N4CCC(N(C)C)C4)nc3)n2)cc1` (stereo not shown) [Example A012, 1-((2-(3-(dimethylamino)pyrrolidin-1-yl)pyrimidin-5-yl)methyl)-3-(4-(2-(4-methoxyphenyl)propan-2-yl)thiazol-2-yl)urea], the pIC50 in experiment [1] is 7.40; in experiment [2] (Homo sapiens, HEK293), 5.66. The matching figures for `C#CC(C)(c1ccc(Br)cc1)c1csc(NC(N)=O)n1` (stereo in doubt) [Example A164, (R)-1-(4-(2-(4-bromophenyl)but-3-yn-2-yl)thiazol-2-yl)urea]: 7.77 and 6.23. On to `C#C[C@@](C)(c1ccc(Cl)cc1)c1csc(NC(=O)N2CC(CO)C2)n1` [Example A258, (S)-N-(4-(2-(4-chlorophenyl)but-3-yn-2-yl)thiazol-2-yl)-3-(hydroxymethyl)azetidine-1-carboxamide], for which the pIC50 in experiment [1] was 6.45; in experiment [2] (Homo sapiens, HEK293) it was 5.88.

Consider `CC(C)(c1ccc(Br)cc1)c1csc(NC(=O)NCCS(N)(=O)=O)n1` [Example A131, 2-(3-(4-(2-(4-bromophenyl)propan-2-yl)thiazol-2-yl)ureido)ethanesulfona-mide], for which the pIC50 in experiment [1] is 6.66; in experiment [2] (Homo sapiens, HEK293) it was 6.03.

`C#C[C@](C)(c1ccc(Cl)cc1)c1csc(NC(=O)N2CCc3cc(N4CCNCC4)ccc3C2)n1` (stereo in doubt) [Example A280, N-(4-(2-(4-chlorophenyl)but-3-yn-2-yl)thiazol-2-yl)-6-(piperazin-1-yl)-3,4-dihydroisoquinoline-2(1H)-carboxamide]: the pIC50 in experiment [2] (Homo sapiens, HEK293) is 5.66.

In the case of `C#C[C@@](C)(c1ccc(Cl)cc1)c1csc(NC(=O)N2CCc3cc(N4CCNCC4)ccc3C2)n1` [Example A281, N-(4-(2-(4-chlorophenyl)but-3-yn-2-yl)thiazol-2-yl)-6-(piperazin-1-l)-3,4-dihydroisoquinoline-2(1H)-carboxamide], the pIC50 in experiment [2] is 6.07.

With `C#C[C@@](C)(c1ccc(Cl)cc1)c1csc(NC(=O)N2CCc3cc(N4CCNCC4)ccc3C2)n1` [Example A260, (S)-N-(4-(2-(4-chlorophenyl)but-3-yn-2-yl)thiazol-2-yl)-6-(piperazin-1-yl)-3,4-dihydroisoquinoline-2(1H)-carboxamide], in experiment [2] (Homo sapiens, HEK293), the pIC50 was 5.97.

With `C#C[C@](C)(c1ccc(Cl)cc1)c1csc(NC(=O)NCC(C)O)n1` (stereo in doubt) [Example A318, 1-(4-(2-(4-chlorophenyl)but-3-yn-2-yl)thiazol-2-yl)-3-(2-hydroxypropyl)urea], the pIC50 in experiment [2] is 5.65. Regarding `C#CC(C)(c1ccc(OC)cc1)c1csc(NC(=O)NC(C)c2ccc(N3CCNCC3)cc2)n1` (stereo not shown) [Example A234, 1-(4-(2-(4-methoxyphenyl)but-3-yn-2-yl)thiazol-2-yl)-3-(1-(4-(piperazin-1-yl)phenyl)ethyl)urea], the pIC50 in experiment [2] (Homo sapiens, HEK293) is 5.57. On the same count and under the same terms, in the case of `COc1ccc(C(C)(C)c2csc(NC(=O)NCc3cc(F)c(C4CCNCC4)c(F)c3)n2)cc1` [Example A151, 1-(3,5-difluoro-4-(piperidin-4-yl)benzyl)-3-(4-(2-(4-methoxyphenyl)propan-2-yl)thiazol-2-yl)urea hydrochloride] it was 6.02; in that of `CC(C)(c1ccc(Br)cc1)c1csc(NC(=O)NCc2ccc(N3CCNCC3)c(Br)c2)n1` [Example A097, 1-(3-bromo-4-(piperazin-1-yl)benzyl)-3-(4-(2-(4-bromophenyl)propan-2-yl)thiazol-2-yl)urea], 5.85; in that of `CC(C)(c1ccc(I)cc1)c1csc(NC(=O)NCc2cnc(N3CCNCC3)nc2)n1` [Example A178, 1-(4-(2-(4-iodophenyl)propan-2-yl)thiazol-2-yl)-3-((2-(piperazin-1-yl)pyrimidin-5-yl)methyl)urea], 6.04. As for `CC(C)(c1ccc(Br)cc1)c1csc(NC(=O)NCc2ccc(C3CCNCC3)c(F)c2)n1` [Example A222, 1-(4-(2-(4-bromophenyl)propan-2-yl)thiazol-2-yl)-3-(3-fluoro-4-(piperidin-4-yl)benzyl)urea], the pIC50 in experiment [2] (Homo sapiens, HEK293) is 6.03. Turning to `C#CC(C)(c1ccc(Br)cc1)c1csc(NC(=O)NCCN2CCNCC2)n1` (stereo not shown) [Example A239, 1-(4-(2-(4-bromophenyl)but-3-yn-2-yl)thiazol-2-yl)-3-(2-(piperazin-1-yl)ethyl)urea], in experiment [2] (Homo sapiens, HEK293), the pIC50 was 6.07. Still for that read-out and setting: the same measure for `CC(C)(c1ccc(Br)cc1)c1csc(NC(=O)NCc2cccc(N3CCNCC3)c2)n1` [Example A005, 1-(4-(2-(4-bromophenyl)propan-2-yl)thiazol-2-yl)-3-(3-(piperazin-1-yl)benzyl)urea]: 5.94. For `COc1ccc(C(C)(CO)c2csc(NC(=O)NC(C)c3ccc(N4CCNCC4)cc3)n2)cc1` (stereo not shown) [Example A235, 1-(4-(1-hydroxy-2-(4-methoxyphenyl)propan-2-yl)thiazol-2-yl)-3-(1-(4-(piperazin-1-yl)phenyl)ethyl)urea], the pIC50 in experiment [2] (Homo sapiens, HEK293) was 4.57. On the same count and under the same terms, the same measure for `C#C[C@@](C)(c1ccc(Cl)cc1)c1nc(NC(=O)NCCO)sc1Cl` [Example A247, (S)-1-(5-chloro-4-(2-(4-chlorophenyl)but-3-yn-2-yl)thiazol-2-yl)-3-(2-hydroxyethyl)urea]: 5.73.

As usually defined, the pIC50 is −log10 of the IC50, conventionally taken in molar units.

Source of the values: US20240109853A1 (Shanghai Yao Yuan Biotechnology Co., Ltd., priority 2020, published 2024).
